These results are taken from patent US9730938B2, “Bruton's tyrosine kinase inhibitor combinations and uses thereof” (Pharmacyclics LLC, priority 2014, dated 2017).

One assay has as its system Jeko cells. Put plainly: 3-day CellTiter Glow combination study in Jeko cells with wild-type or mutant CARD11. Type of assay: cell-based. The following applies: FIG. 6. On the procedure:
(§1) Jeko cells, a MCL cell line, and OCI-Ly3, a DLBCL cell line, were used for this experiment.
(§2) In summary, 10,000 cells were plated into 96-well plates and treated with different concentrations of inhibitors. 3 days later, CellTiter Glow reagent was added into the wells and the luminescent signals were measured.
For orientation: ATP-based viability assays read luminescence as a measure of living cells.

A further assay deals with OCI-Ly3 cells. Briefly: 3-day CellTiter Glow combination study in OCI-Ly3 cells. Type of assay: cell-based. To be noted: in combination with ibrutinib; FIG. 7. On the procedure:
as §1, §2

For a further assay, the system named is CARD11 / NF-κB pathway. Briefly: Western blot analysis, Jeko cells containing CARD11 L225LI (mut10). Type of assay: cell-based. To be noted: FIG. 8. On the procedure:
The cell lysates were prepared from the cells which were treated with different concentrations of inhibitors for overnight incubation. Antibodies that correlate to the proteins of interest were used for detection.
On the technique in general: A western blot detects proteins with antibodies after separation by electrophoresis.

The test system of the next assay is OCI-LY-10. Briefly: Combined drug treatment cell viability, CellTiter-Glo assay (Example 1). Type of assay: cell-based. To be noted: 3 days. The protocol: (§3) DLBCL cells at either 1×10^4 cells or 2×10^4 cells were plated onto each well of a 96-W plate (Table 1).
(§4) The stock solutions for the IDH1 inhibitor AGI5198 and the MALT1 inhibitor MI-2 were each prepared at 50 mM concentration.
(§5) The 96-W plate was then incubated for 3 days. Cell viability was examined using a CellTiter-Glo assay.
(§6) A 40 μL of CellTiter-Glo reagent was added directly into each well of the 96-W plate. The plate was then shaken on a Shaker (Labsystem Wellmix) at speed 5 for 10-20 min at room temperature. Next, 100 μL of the mixed medium was transferred to a white, non-transparent, flat bottom 96-W plate for assaying. A Flexstation 3 luminometer was used for detecting and measuring the luminescent signals. Measurements were taken at room temperature.
(§7) In general, the combination is described as synergistic (CI<1), additive (CI=1), or antagonistic (CI>1). Synergism is further separated into very strong synergism (<0.1), strong synergism (0.1-0.3), synergism (0.3-0.7), moderate synergism (0.7-0.85), and slight synergism (0.85-0.9).

In another assay the test system is OCI-LY-3. The description is as above. To be noted: 3 days. Type of assay: cell-based. On the procedure: as §3, §4, §5, §6, §7
Another assay deals with TMD8. Described as above. Type of assay: cell-based. To be noted: 3 days. On the procedure:
as §3, §4, §5, §6, §7

The next assay has as its system U2932. The description is as above. Type of assay: cell-based. To be noted: 3 days. The protocol:
as §3, §4, §5, §6, §7

Another assay has as its system SU-DHL-2. Described as above. Type of assay: cell-based. To be noted: 3 days. On the procedure:
as §3, §4, §5, §6, §7

The subject of the next assay is ABC-DLBCL cells. The following applies: Ferch et al. 2009; Hailfinger et al. 2009; cited from earlier work.
The mark [1] stands for this setting: ibrutinib 0 nM, IDH1i 10 uM / MALT1i 5 uM alone.
Setting [2] is: ibrutinib 0.0256 nM, IDH1i 10 uM / MALT1i 5 uM / medium alone.
Where [3] appears, read: ibrutinib 0.128 nM, IDH1i 10 uM / MALT1i 5 uM / medium alone.
Where [4] appears, read: ibrutinib 0.64 nM, IDH1i 10 uM / MALT1i 5 uM / medium alone.
Setting [5] is: ibrutinib 3.2 nM, IDH1i 10 uM / MALT1i 5 uM / medium alone.
The mark [6] stands for this setting: ibrutinib 16 nM, IDH1i 10 uM / MALT1i 5 uM / medium alone.
[7] abbreviates: ibrutinib 80 nM, IDH1i 10 uM / MALT1i 5 uM / medium alone.
Where [8] appears, read: ibrutinib 400 nM, IDH1i 10 uM / MALT1i 5 uM / medium alone.
Where [9] appears, read: ibrutinib 2000 nM, IDH1i 10 uM / MALT1i 5 uM / medium alone.
Setting [10] is: ibrutinib 10000 nM, IDH1i 10 uM / MALT1i 5 uM / medium alone.
[11] abbreviates: ibrutinib 0 nM, IDH1i 10 uM / MALT1i 200 nM alone.
The mark [12] stands for this setting: ibrutinib 0.0256 nM, IDH1i 10 uM / MALT1i 200 nM / medium alone.
The mark [13] stands for this setting: ibrutinib 0.128 nM, IDH1i 10 uM / MALT1i 200 nM / medium alone.
Where [14] appears, read: ibrutinib 0.64 nM, IDH1i 10 uM / MALT1i 200 nM / medium alone.
Where [15] appears, read: ibrutinib 3.2 nM, IDH1i 10 uM / MALT1i 200 nM / medium alone.
Setting [16] is: ibrutinib 16 nM, IDH1i 10 uM / MALT1i 200 nM / medium alone.
The mark [17] stands for this setting: ibrutinib 80 nM, IDH1i 10 uM / MALT1i 200 nM / medium alone.
Setting [18] is: ibrutinib 400 nM, IDH1i 10 uM / MALT1i 200 nM / medium alone.
[19] abbreviates: ibrutinib 2000 nM, IDH1i 10 uM / MALT1i 200 nM / medium alone.
[20] abbreviates: ibrutinib 10000 nM, IDH1i 10 uM / MALT1i 200 nM / medium alone.

Turning to `CC(C)C[C@H](NC(=O)[C@H](CCc1ccccc1)NC(=O)CN1CCOCC1)C(=O)N[C@@H](Cc1ccccc1)C(=O)N[C@@H](CC(C)C)C(=O)[C@@]1(C)CO1` [Carfilzomib], the “sensitization of Jeko cells containing the mutant CARD11 to ibrutinib treatment” value in the assay on Jeko cells is “sensitized”. Further, in the assay with OCI-Ly3 cells, the “sensitization of OCI-Ly3 cells” value is listed as “sensitized”.
`COCCOc1nc(-c2ccc(Cl)c(Cl)c2)n(-c2ccc(NC(=O)CCl)cc2)n1` [MI-2]: the “effect on NF-κB pathway together with ibrutinib” value in the assay on CARD11 / NF-κB pathway was “in some instances synergize with ibrutinib to inhibit the NF-κB pathway”. In addition, the “effect on CARD11 protein” value in the assay with CARD11 / NF-κB pathway (overnight incubation) is recorded as “cause degradation of CARD11”. Also, in the assay with Jeko cells, the “sensitization of Jeko cells containing the mutant CARD11 to ibrutinib treatment” value is listed as “sensitized”. The “luminescence (CellTiter-Glo)” value with OCI-LY-10 (setting [1]) stood at 19317.19; in the assay on OCI-LY-10 (setting [2]), 21817.96; in the assay with OCI-LY-10 (setting [3]), 17802.53; in the assay with OCI-LY-10 (setting [4]) it was 16971.57; in the assay with OCI-LY-10 (setting [5]), 13413.69; with OCI-LY-10 (setting [6]) it was 7749.49. The “luminescence (CellTiter-Glo)” value in the assay on OCI-LY-10 (setting [7]) is reported as 9592.85; in the assay on OCI-LY-10 (setting [8]), 9064.30; with OCI-LY-10 (setting [9]), 10110.89; in the assay with OCI-LY-10 (setting [10]) it was 9734.85; in the assay with OCI-LY-3 (setting [1]), 23290.74; in the assay on OCI-LY-3 (setting [2]), 25371.59. The “luminescence (CellTiter-Glo)” value in the assay on OCI-LY-3 (setting [3]) was found to be 26368.71; in the assay on OCI-LY-3 (setting [4]), 24778.56; with OCI-LY-3 (setting [5]) it was 26610.12; in the assay on OCI-LY-3 (setting [6]) it was 27654.48; in the assay with OCI-LY-3 (setting [7]), 27617.74; in the assay on OCI-LY-3 (setting [8]) it was 25227.27. For the same molecule, the “luminescence (CellTiter-Glo)” value was found to be 26843.66 in the assay on OCI-LY-3 (setting [9]); 23784.06 with OCI-LY-3 (setting [10]); 71955.73 in the assay on TMD8 (ibrutinib 0 nM, IDH1i 10 uM / MALT1i 100 nM alone); 26784.40 with TMD8 (ibrutinib 0.0256 nM, IDH1i 10 uM / MALT1i 100 nM / medium alone); 23958.89 with TMD8 (ibrutinib 0.128 nM, IDH1i 10 uM / MALT1i 100 nM / medium alone); 25405.91 with TMD8 (ibrutinib 0.64 nM, IDH1i 10 uM / MALT1i 100 nM / medium alone). For the same molecule, the “luminescence (CellTiter-Glo)” value stood at 24014.24 in the assay with TMD8 (ibrutinib 3.2 nM, IDH1i 10 uM / MALT1i 100 nM / medium alone); 22888.78 in the assay with TMD8 (ibrutinib 16 nM, IDH1i 10 uM / MALT1i 100 nM / medium alone); 22045.34 in the assay with TMD8 (ibrutinib 80 nM, IDH1i 10 uM / MALT1i 100 nM / medium alone); 21591.99 in the assay on TMD8 (ibrutinib 400 nM, IDH1i 10 uM / MALT1i 100 nM / medium alone); 21278.34 with TMD8 (ibrutinib 2000 nM, IDH1i 10 uM / MALT1i 100 nM / medium alone); 9754.88 in the assay with TMD8 (ibrutinib 10000 nM, IDH1i 10 uM / MALT1i 100 nM / medium alone). The “luminescence (CellTiter-Glo)” value in the assay on U2932 (setting [11]) came to 54720.82; in the assay on U2932 (setting [12]), 48183.41; in the assay with U2932 (setting [13]), 46995.03; in the assay on U2932 (setting [14]) it was 49419.22; with U2932 (setting [15]) it was 48821.08; with U2932 (setting [16]) it was 44565.57. Besides, the “luminescence (CellTiter-Glo)” value in the assay with U2932 (setting [17]) is 47234.82; in the assay on U2932 (setting [18]), 41263.93; in the assay on U2932 (setting [19]), 45695.98; in the assay on U2932 (setting [20]) it was 31838.57; with SU-DHL-2 (setting [11]) it was 131429.7; in the assay with SU-DHL-2 (setting [12]), 127667.9. Besides, the “luminescence (CellTiter-Glo)” value came to 145168.7 with SU-DHL-2 (setting [13]); 148058.4 in the assay on SU-DHL-2 (setting [14]); 156036.5 in the assay with SU-DHL-2 (setting [15]); 153735.3 with SU-DHL-2 (setting [16]); 154662.6 in the assay with SU-DHL-2 (setting [17]); 152400.8 in the assay with SU-DHL-2 (setting [18]). For the same molecule, the “luminescence (CellTiter-Glo)” value with SU-DHL-2 (setting [19]) was 151552.3; in the assay on SU-DHL-2 (setting [20]) it was 61725.8.
Regarding Z-VRPR-FMK, the “effect on ABC-DLBCL cells” value in the assay on ABC-DLBCL cells is listed as “exerts toxic effects”.
